Bridge positions count the residues as written; N and C are the ends. Square brackets hold non-standard residues; d marks the D form. Peptide text beside a SMILES is read from it. * marks the point of attachment. ξ: configuration not given here. Phe(4-(4-F-Ph)) = N[C@@H](Cc1ccc(-c2ccc(F)cc2)cc1)C(=O)O; Phe(4-NO2) = N[C@@H](Cc1ccc([N+](=O)[O-])cc1)C(=O)O; Phe(4-COOH) = N[C@@H](Cc1ccc(C(=O)O)cc1)C(=O)O; Phe(2,4-Cl2) = N[C@@H](Cc1ccc(Cl)cc1Cl)C(=O)O; Bip = N[C@@H](Cc1ccc(-c2ccccc2)cc1)C(=O)O; Phe(3-Me) = Cc1cccc(C[C@H](N)C(=O)O)c1; h4Pal = N[C@@H](CCc1ccncc1)C(=O)O; 3Pal = N[C@@H](Cc1cccnc1)C(=O)O; 4Pal = N[C@@H](Cc1ccncc1)C(=O)O; 2Thi = N[C@@H](Cc1cccs1)C(=O)O; Cha = N[C@@H](CC1CCCCC1)C(=O)O; Cit = NC(=O)NCCC[C@H](N)C(=O)O; Ile(3ξ) = CCC(C)[C@H](N)C(=O)O; Carboxymethyl = O=C(O)C*; NMeA = CN[C@@H](C)C(=O)O; Nle = CCCC[C@H](N)C(=O)O; Orn = NCCC[C@H](N)C(=O)O; Dab = NCC[C@H](N)C(=O)O; Nva = CCC[C@H](N)C(=O)O; Dap = NC[C@H](N)C(=O)O
target: T1, PE-labeled human PD-L1-Ig binding to Jurkat cell line over-expressing human PD-1 (Jurkat-PD-1) (Homo sapiens, UniProt Q15116); experiment: Jurkat-PD-1 Cell Binding High-Content Screening Assay (CBA): Method 1; details: Jurkat-hPD-1 cells, PE-labeled PD-L1-Ig 20 nM final; read-out: Jurkat HPDL1 PD1 IC50 (uM) (Method 1)
T1 construct: expressed in transfected cells; host or cells: Jurkat
T1 sequence (Q15116 25-288): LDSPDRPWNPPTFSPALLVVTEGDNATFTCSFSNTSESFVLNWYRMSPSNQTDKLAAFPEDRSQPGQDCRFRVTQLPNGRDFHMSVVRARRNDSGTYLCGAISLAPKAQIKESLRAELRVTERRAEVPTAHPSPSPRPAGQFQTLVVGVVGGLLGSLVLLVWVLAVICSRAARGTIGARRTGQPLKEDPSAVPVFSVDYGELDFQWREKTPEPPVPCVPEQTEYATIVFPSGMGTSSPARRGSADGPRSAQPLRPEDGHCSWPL

SMILES | IC50 [µM]
CC(C)C[C@@H]1NC(=O)[C@H](CCCNC(=N)N)NC(=O)[C@@H](CC(C)C)NC(=O)[C@H](C)N(C)C(=O)[C@H](C(C)C)NC(=O)[C@H](Cc2ccc(-c3ccccc3)cc2)NC(=O)[C@H](C(C)C)NC(=O)[C@H](Cc2c[nH]c3ccccc23)NC(=O)[C@H](CC(=O)O)NC(=O)[C@H](Cc2ccc(O)cc2)NC(=O)[C@H](CC(N)=O)NC(=O)CSC[C@@H](C(=O)N[C@@H](C)C(N)=O)NC(=O)[C@H]([C@@H](C)O)NC(=O)[C@H](C(C)C)NC1=O [Compound 1216] ({CH2CO}-NYDWV[Bip]V[NMeA][dL]RLVTCA-NH2; thioether N-14) | 0.03
Cc1cccc(C[C@@H]2NC(=O)[C@H](CC(=O)O)NC(=O)[C@H](CCc3ccncc3)NC(=O)[C@H](CN)NC(=O)CSC[C@@H](C(=O)N[C@@H](C)C(N)=O)NC(=O)[C@H]([C@@H](C)O)NC(=O)[C@H](C(C)C)NC(=O)[C@H](CC(C)C)NC(=O)[C@H](CCN)NC(=O)[C@@H](CC(C)C)NC(=O)[C@H](C)N(C)C(=O)[C@H](CCCNC(N)=O)NC(=O)[C@H](Cc3ccc(-c4ccccc4)cc3)NC(=O)[C@H](C(C)C)NC2=O)c1 [Compound 1547] ({CH2CO}-[Dap][h4Pal]D[Phe(3-Me)]V[Bip][Cit][NMeA][dL][Dab]LVTCA-NH2; thioether N-14) | 0.01
CC(C)C[C@@H]1NC(=O)[C@H](CCN)NC(=O)[C@@H](CC(C)C)NC(=O)[C@H](C)N(C)C(=O)[C@H](CCCNC(=N)N)NC(=O)[C@H](Cc2ccc(-c3ccccc3)cc2)NC(=O)[C@H](C(C)C)NC(=O)[C@H](Cc2c[nH]c3ccccc23)NC(=O)[C@H](CC(=O)O)NC(=O)[C@H](Cc2ccc([N+](=O)[O-])cc2)NC(=O)[C@H](CC(N)=O)NC(=O)CSC[C@@H](C(=O)N[C@@H](C)C(N)=O)NC(=O)[C@H]([C@@H](C)O)NC(=O)[C@H](C(C)C)NC1=O [Compound 1188] ({CH2CO}-N[Phe(4-NO2)]DWV[Bip]R[NMeA][dL][Dab]LVTCA-NH2; thioether N-14) | 0.09
Cc1cccc(C[C@@H]2NC(=O)[C@H](CC(=O)O)NC(=O)[C@H](Cc3ccc(OCC(=O)O)cc3)NC(=O)[C@H](Cc3ccncc3)NC(=O)CSC[C@@H](C(N)=O)NC(=O)[C@H](CCCN)NC(=O)[C@H](C(C)C)NC(=O)[C@H](CC3CCCCC3)NC(=O)[C@H](CCN)NC(=O)[C@@H](CC(C)C)NC(=O)[C@H](C)N(C)C(=O)[C@H](Cc3ccc(OCC(=O)O)cc3)NC(=O)[C@H](Cc3ccc(-c4ccccc4)cc3)NC(=O)[C@H](Cc3ccc(OCC(=O)O)cc3)NC2=O)c1 [Compound 1662] ({CH2CO}-[4Pal]Y(Carboxymethyl)D[Phe(3-Me)]Y(Carboxymethyl)[Bip]Y(Carboxymethyl)[NMeA][dL][Dab][Cha]V[Orn]C-NH2; thioether N-14) | 0.01
CCC(C)[C@@H]1NC(=O)[C@H](Cc2ccc(-c3ccccc3)cc2)NC(=O)[C@H](CC(C)C)NC(=O)[C@H](Cc2c[nH]c3ccccc23)NC(=O)[C@H](CC(=O)O)NC(=O)[C@H](Cc2ccc(C(=O)O)cc2)NC(=O)[C@H](Cc2ccc(OCC(=O)O)cc2)NC(=O)CSC[C@@H](C(=O)N[C@@H](CO)C(N)=O)NC(=O)[C@H](CO)NC(=O)[C@H](C(C)C)NC(=O)[C@H](CC2CCCCC2)NC(=O)[C@H](CCN)NC(=O)[C@@H](CC(C)C)NC(=O)[C@H](C)N(C)C1=O (stereo partly drawn) [Compound 1929] ({CH2CO}-Y(Carboxymethyl)[Phe(4-COOH)]DWL[Bip][Ile(3ξ)][NMeA][dL][Dab][Cha]VSCS-NH2; thioether N-14) | 0.02
CC(C)C[C@@H]1NC(=O)[C@H](CCN)NC(=O)[C@@H](CC(C)C)NC(=O)[C@H](C)N(C)C(=O)[C@H](CCCNC(=N)N)NC(=O)[C@H](Cc2ccc(-c3ccccc3)cc2)NC(=O)[C@H](C(C)C)NC(=O)[C@H](Cc2c[nH]c3ccccc23)NC(=O)[C@H](CC(=O)O)NC(=O)[C@H](Cc2ccc(O)cc2)NC(=O)[C@H](CC(N)=O)NC(=O)CSC[C@@H](C(=O)N[C@@H](C)C(N)=O)NC(=O)[C@H](CCCN)NC(=O)[C@H](C(C)C)NC1=O [Compound 1242] ({CH2CO}-NYDWV[Bip]R[NMeA][dL][Dab]LV[Orn]CA-NH2; thioether N-14) | 0.09
Cc1cccc(C[C@@H]2NC(=O)[C@H](CC(=O)O)NC(=O)[C@H](Cc3ccc(OCC(=O)O)cc3)NC(=O)[C@H](Cc3ccncc3)NC(=O)CSC[C@@H](C(=O)N[C@@H](CCN)C(N)=O)NC(=O)[C@H](CCC(=O)O)NC(=O)[C@H](C(C)C)NC(=O)[C@H](CC3CCCCC3)NC(=O)[C@H](CCN)NC(=O)[C@@H](CC(C)C)NC(=O)[C@H](C)N(C)C(=O)[C@H](Cc3ccc(OCC(=O)O)cc3)NC(=O)[C@H](Cc3ccc(-c4ccccc4)cc3)NC(=O)[C@H](Cc3ccc(C(=O)O)cc3)NC2=O)c1 [Compound 2193] ({CH2CO}-[4Pal]Y(Carboxymethyl)D[Phe(3-Me)][Phe(4-COOH)][Bip]Y(Carboxymethyl)[NMeA][dL][Dab][Cha]VEC[Dab]-NH2; thioether N-14) | 0.01
CC(C)C[C@@H]1NC(=O)[C@H](CCCN)NC(=O)[C@@H](CC(C)C)NC(=O)[C@H](C)N(C)C(=O)[C@H](CCCNC(=N)N)NC(=O)[C@H](Cc2ccc(-c3ccccc3)cc2)NC(=O)[C@H](C(C)C)NC(=O)[C@H](Cc2c[nH]c3ccccc23)NC(=O)[C@H](CC(=O)O)NC(=O)[C@H](Cc2ccc(OCC(=O)O)cc2)NC(=O)[C@H](Cc2cnc[nH]2)NC(=O)CSC[C@@H](C(=O)N[C@@H](C)C(N)=O)NC(=O)[C@H]([C@@H](C)O)NC(=O)[C@H](C(C)C)NC1=O [Compound 1148] ({CH2CO}-HY(Carboxymethyl)DWV[Bip]R[NMeA][dL][Orn]LVTCA-NH2; thioether N-14) | 0.05
CC(C)C[C@@H]1NC(=O)[C@H](CCN)NC(=O)[C@@H](CC(C)C)NC(=O)[C@H](C)N(C)C(=O)[C@H](CCCNC(N)=O)NC(=O)[C@H](Cc2ccc(-c3ccccc3)cc2)NC(=O)[C@H](C(C)C)NC(=O)[C@H](Cc2c[nH]c3ccccc23)NC(=O)[C@H](CC(=O)O)NC(=O)[C@H](Cc2ccc(OCC(=O)O)cc2)NC(=O)[C@H](Cc2ccc(OCC(=O)O)cc2)NC(=O)CSC[C@@H](C(=O)N[C@@H](C)C(N)=O)NC(=O)[C@H]([C@@H](C)O)NC(=O)[C@H](C(C)C)NC1=O [Compound 1569] ({CH2CO}-Y(Carboxymethyl)Y(Carboxymethyl)DWV[Bip][Cit][NMeA][dL][Dab]LVTCA-NH2; thioether N-14) | 0.04
CC(C)C[C@@H]1NC(=O)[C@H](Cc2c[nH]c3ccccc23)NC(=O)[C@H](CC(=O)O)NC(=O)[C@H](Cc2ccc(O)cc2)NC(=O)[C@H](Cc2ccccc2)NC(=O)CSC[C@@H](C(=O)N[C@@H](C)C(N)=O)NC(=O)[C@H](CO)NC(=O)[C@H](C(C)C)NC(=O)[C@H](CC(C)C)NC(=O)[C@H](CC(=O)O)NC(=O)[C@@H](C)NC(=O)[C@H](C)N(C)C(=O)[C@H](C(C)C)NC(=O)[C@H](Cc2ccc(-c3ccc(F)cc3)cc2)NC1=O [Compound 1825] ({CH2CO}-FYDWL[Phe(4-(4-F-Ph))]V[NMeA][dA]DLVSCA-NH2; thioether N-14) | 0.66
CCC[C@@H]1NC(=O)[C@H](CC(C)C)NC(=O)[C@H](CCCNC(=N)N)NC(=O)[C@@H](CC(C)C)NC(=O)[C@H](C)N(C)C(=O)[C@H](CCCNC(=N)N)NC(=O)[C@H](Cc2ccc(-c3ccccc3)cc2)NC(=O)[C@H](C(C)C)NC(=O)[C@H](Cc2c[nH]c3ccccc23)NC(=O)[C@H](CC(=O)O)NC(=O)[C@H](Cc2ccc(O)cc2)NC(=O)[C@H](Cc2ccccc2)NC(=O)CSC[C@@H](C(=O)N[C@@H](C)C(N)=O)NC(=O)[C@H]([C@@H](C)O)NC1=O [Compound 1112] ({CH2CO}-FYDWV[Bip]R[NMeA][dL]RL[Nva]TCA-NH2; thioether N-14) | 0.1
CC(C)C[C@@H]1NC(=O)[C@H](Cc2c[nH]c3ccccc23)NC(=O)[C@H](CC(=O)O)NC(=O)[C@H](Cc2ccc(Cl)cc2Cl)NC(=O)[C@H](Cc2ccccc2)NC(=O)CSC[C@@H](C(=O)N[C@@H](C)C(N)=O)NC(=O)[C@H](CO)NC(=O)[C@H](C(C)C)NC(=O)[C@H](CC(C)C)NC(=O)[C@H](CC(N)=O)NC(=O)[C@@H](C)NC(=O)[C@H](C)N(C)C(=O)[C@H](C(C)C)NC(=O)[C@H](Cc2ccc(-c3ccccc3)cc2)NC1=O [Compound 1810] ({CH2CO}-F[Phe(2,4-Cl2)]DWL[Bip]V[NMeA][dA]NLVSCA-NH2; thioether N-14) | 0.28
CC(C)C[C@@H]1NC(=O)[C@H](CCN)NC(=O)[C@@H](CC(C)C)NC(=O)[C@H](C)N(C)C(=O)[C@H](CCCNC(=N)N)NC(=O)[C@H](Cc2ccc(-c3ccccc3)cc2)NC(=O)[C@H](C(C)C)NC(=O)[C@H](Cc2cccs2)NC(=O)[C@H](CC(=O)O)NC(=O)[C@H](Cc2ccc(O)cc2)NC(=O)[C@H](CC(N)=O)NC(=O)CSC[C@@H](C(=O)N[C@@H](C)C(N)=O)NC(=O)[C@H]([C@@H](C)O)NC(=O)[C@H](C(C)C)NC1=O [Compound 1218] ({CH2CO}-NYD[2Thi]V[Bip]R[NMeA][dL][Dab]LVTCA-NH2; thioether N-14) | 0.2
CC(C)C[C@@H]1NC(=O)[C@H](CCN)NC(=O)[C@@H](CC(C)C)NC(=O)[C@H](C)N(C)C(=O)[C@H](CCCNC(=N)N)NC(=O)[C@H](Cc2ccc(-c3ccccc3)cc2)NC(=O)[C@H](C(C)C)NC(=O)[C@H](Cc2c[nH]c3ccccc23)NC(=O)[C@H](CC(=O)O)NC(=O)[C@H](Cc2ccc(O)cc2)NC(=O)[C@H](Cc2cccnc2)NC(=O)CSC[C@@H](C(=O)N[C@@H](C)C(N)=O)NC(=O)[C@H]([C@@H](C)O)NC(=O)[C@H](C(C)C)NC1=O [Compound 1053] ({CH2CO}-[3Pal]YDWV[Bip]R[NMeA][dL][Dab]LVTCA-NH2; thioether N-14) | 0.12
CCCC[C@@H]1NC(=O)[C@H](CCCNC(=N)N)NC(=O)[C@@H](CC(C)C)NC(=O)[C@H](C)N(C)C(=O)[C@H](CCCN)NC(=O)[C@H](Cc2ccc(-c3ccccc3)cc2)NC(=O)[C@H](C(C)C)NC(=O)[C@H](Cc2c[nH]c3ccccc23)NC(=O)[C@H](CC(=O)O)NC(=O)[C@H](Cc2ccc(O)cc2)NC(=O)[C@H](CC(N)=O)NC(=O)CSC[C@@H](C(=O)N[C@@H](C)C(N)=O)NC(=O)[C@H]([C@@H](C)O)NC(=O)[C@H](C(C)C)NC1=O [Compound 1289] ({CH2CO}-NYDWV[Bip][Orn][NMeA][dL]R[Nle]VTCA-NH2; thioether N-14) | 0.09

— patent US20240409585A1, “MACROCYCLIC IMMUNOMODULATORS” (priority 2021, published 2024)
